For the test, the system named is T1, gene_236976 product (L-carnosine synthase, L-aminopeptidase).
T1 construct: codon-optimised synthetic gene in pET-26b (NcoI/XhoI), his6-tagged, E. coli BL21(DE3), Ni-agarose purified
The experiment in a line: HPLC of L-carnosine formed, Michaelis-Menten fit. In kind it is biochemical, metagenome: deep-sea sediment. Particulars: 100 mM β-AlaOMe, 0-400 mM L-histidine; assay buffer Na2CO3/NaHCO3 pH 10.0, 30 °C; read-out: L-histidine^b / Km. From the text: HPLC of L-carnosine formed, Michaelis-Menten fit on gene_236976 product (L-carnosine synthase, L-aminopeptidase)

Each structure is given as a SMILES string.

Turning to `N[C@@H](Cc1cnc[nH]1)C(=O)O` [L-histidine], the Km was determined as 7.73 ± 0.29 mM.

For the origin of these results see publication PMC9235088, “Characterization of a new L-carnosine synthase mined from deep-sea sediment metagenome” (Microbial Cell Factories, 2022).
